# Laboratory results reported in US20240082212A1, “USE OF MDMA FOR TREATMENT OF STRESS-RELATED DISORDERS” (priority 2022, published 2024).
# Entries after “also recorded” stand apart in the source; their conditions may differ.
# Columns and labels:
# CD (Sprague Dawley) rats [1] = assay: Rat functional observation battery (FOB) neurobehavioral evaluation after cumulative SC dosing; format: in vivo
# Method: The observations were assessed through a rat functional observation battery (FOB) and continuous physiological measurements on the day of cumulative dosing, which are provided in further detail below.
# (§1) Methods. A total of 42 adult male CD® (Sprague Dawley) rats (Charles River Laboratories) were surgically implanted with DSI radiotelemetry devices by personnel at Charles River Laboratories Raleigh, NC, per their test site SOPs. Telemetry devices supported continuous recording of temperature, activity, blood pressure and heart rate. Telemeterized rats were shipped to the Charles River Laboratories testing facility (Mattawan, MI) and acclimated to the environment for at least 1 week prior to experimentation. Animals were pair-housed in solid bottom cages with nonaromatic bedding. On the dosing day, animals were singly housed and then returned to the paired cohort following the dosing/telemetry recording phase. Diet (Lab Diet® Certified Rodent Diet #5CR4) and tap water via an automatic water system were available ad libitum, except during designated procedures. Temperature and humidity were maintained according to the Testing Facility SOP. Animals were randomized into treatment groups using a standard, by weight, measured value randomization procedure. Body weight was determined for each rat prior to dosing.
# (§2) As illustrated in the Table, a total of 36 rats were included in the study. The vehicle and 2 test article doses were administered in a volume of 1 mL/kg to each of 3 groups of n=12 telemeterized rats via subcutaneous injection four times on a given day, followed by neurobehavioral evaluations. This series was repeated 3 times on study. Each group received all 3 dose levels of the applicable test or control article in ascending order with a 1-week washout between dose levels.
# (§3) Mortality/cage side clinical observations were conducted for all study animals at least twice daily beginning upon receipt through termination, except on days of receipt and termination where frequency was at least once daily. Detailed clinical observations were conducted for all study animals prior to each of the four cumulative doses in a series. Individual body weights were conducted for all study animals at transfer, prior to randomization, on the day of dosing on each of the 3 cycles of dosing. The body weights recorded at transfer and prior to randomization are not reported but are maintained in the study file. Veterinary care was available throughout the course of the study, and animals were examined by the veterinary staff as needed based on clinical signs or other changes. All animals were provided with HydroGel the night prior to their respective dosing days to potentially mitigate any animal welfare issues related to fluid loss/dehydration.
# Neurobehavioral evaluations (blinded) were conducted for all study animals 1 hour following the last (4th) cumulative dose of the series. The neurobehavioral parameters evaluated included: activity measurements (arousal/alertness, posture/body carriage, stereotypy, rearing, and appearance), autonomic measurements (exophthalmus, lacrimation, erected fur, pupil response, salivation, defecation, and palpebral closure/ptosis), excitability measurements (vocalizations, startle response, ease of removal, handling reactivity, and convulsions), neuromuscular measurements (gait/mobility, grip strength/response, air righting reflex, tremor, and body tone), physiological measurements (respiration and body temperature), and sensorimotor measurements (touch response/tactile reflex and thermal response).
# CD (Sprague Dawley) rats [2] = assay: Rat telemetry: heart rate, blood pressure, body temperature, activity after cumulative SC dosing; format: in vivo; settings: for Rank Order Blood Pressures (Systolic, Diastolic, and Mean Arterial) Effects / Rank Order Body Temperature Effects / Rank Order General Activity Effects / Rank Order Heart Rate Measurement Effects: telemetry, cumulative SC dosing, dose groups stated in the value
# Text: as §1, §2, §3
# Telemetry monitoring was conducted for all animals 2 hours prior to dosing and through to 7.5 hours following the last (4th) cumulative dose of each series, which included continuous data collection of body temperature, activity, heart rate, and blood pressure (systolic, diastolic, and mean arterial) using telemetry.
# The total period of time over which the statistical analyses were conducted encompassed the entire dosing period for all animals (i.e., Dose 1 through 7.5 hour post-4th dose) in an effort to draw conclusions regarding the effects of the dosing procedure and cumulative changes by allowing comparisons between the cumulative dosing periods. The following statistical analyses were performed for each analysis segment.
# All time-series data comparisons conducted via statistical analysis are relative to the control treatment and are based on the LSMean values. Additionally, the change values used for the statistical analysis were calculated using a baseline of the 2 hours of pre-dose data, prior to the first compound injection of the series. The raw change values were analyzed.
# [3] = 1 h after last of 4 hourly SC injections, R-MDMA and racemic MDMA 10, 20 mg/kg/day, S-MDMA 5, 10 mg/kg/day
# [4] = 1 h after last of 4 hourly SC injections, racemic MDMA 10, 20 mg/kg/day, S-MDMA 5, 10 mg/kg/day
# [5] = FOB, cumulative SC dosing, dose groups stated in the value, listed as Rac-MDMA
# [6] = FOB, cumulative SC dosing, dose groups stated in the value, listed as Rac.-MDMA
# [7] = maximum change, R-MDMA and racemic MDMA 10, 20 mg/kg/day, S-MDMA 5, 10 mg/kg/day, 4 hourly SC injections
# [8] = racemic MDMA 20 mg/kg/day, S-MDMA 10 mg/kg/day, approximate
compound,measurement,setting,value
"CNC(C)Cc1ccc2c(c1)OCO2 (racemic) [Racemic MDMA, 3,4-methylenedioxymethamphetamine]",arousal/alertness and rearing,CD (Sprague Dawley) rats [1]; [3],general increase in overall levels of arousal/alertness and rearing
same,ease of removal from the home cage and handling reactivity (excitability),CD (Sprague Dawley) rats [1]; [3],Dose-dependent increased difficulty in removal from the home cage and increased handling reactivity
same,forelimb grip strength,CD (Sprague Dawley) rats [1]; [3],dose-dependent statistically significant decreases in forelimb grip strength
same,salivation and erected fur (autonomic),CD (Sprague Dawley) rats [1]; [3],Dose-dependent increased salivation and erected fur
same,unkempt appearance,CD (Sprague Dawley) rats [1]; [3],increased incidence of unkempt appearance in a dose-dependent manner
same,general gait/mobility changes,CD (Sprague Dawley) rats [1]; [4],General gait/mobility changes were only observed
same,respiration,CD (Sprague Dawley) rats [1]; [4],Rapid respiration was noted
same,Rank Order Activity Measurement Effects,CD (Sprague Dawley) rats [1]; [5],Rac-MDMA (0 mg/kg/day) < Rac-MDMA (20 mg/kg/day) < Rac-MDMA (10 mg/kg/day); also recorded: S-MDMA (10 mg/kg/day) = R-MDMA (10 mg/kg/day) = Rac-MDMA (10 mg/kg/day)
same,Rank Order Autonomic Measurement Effects,CD (Sprague Dawley) rats [1]; [5],R-MDMA (20 mg/kg/day) < S-MDMA (10 mg/kg/day) < Rac-MDMA (20 mg/kg/day); also recorded: Rac-MDMA (0 mg/kg/day) < Rac-MDMA (10 mg/kg/day) < Rac-MDMA (20 mg/kg/day); also recorded: R-MDMA (10 mg/kg/day) < S-MDMA (10 mg/kg/day) = Rac-MDMA (20 mg/kg/day)
same,Rank Order Excitability Measurement Effects,CD (Sprague Dawley) rats [1]; [5],S-MDMA (5 mg/kg/day) < Rac-MDMA (10 mg/kg/day); also recorded: R-MDMA (20 mg/kg/day) = S-MDMA (10 mg/kg/day) < Rac-MDMA (20 mg/kg/day); also recorded: Rac-MDMA (0 mg/kg/day) < Rac-MDMA (10 mg/kg/day) < Rac-MDMA (20 mg/kg/day); also recorded: R-MDMA (10 mg/kg/day) < S-MDMA (10 mg/kg/day) < Rac-MDMA (20 mg/kg/day)
same,Rank Order Neuromuscular Measurement Effects,CD (Sprague Dawley) rats [1]; [5],R-MDMA (20 mg/kg/day) = S-MDMA (10 mg/kg/day) < Rac-MDMA (20 mg/kg/day); also recorded: Rac-MDMA (0 mg/kg/day) < Rac-MDMA (10 mg/kg/day) < Rac-MDMA (20 mg/kg/day); also recorded: R-MDMA (10 mg/kg/day) < S-MDMA (10 mg/kg/day) < Rac-MDMA (20 mg/kg/day)
same,Rank Order Physiological Measurement Effects,CD (Sprague Dawley) rats [1]; [5],R-MDMA (20 mg/kg/day) < S-MDMA (10 mg/kg/day) = Rac-MDMA (20 mg/kg/day); also recorded: Rac-MDMA (0 mg/kg/day) < Rac-MDMA (10 mg/kg/day) < Rac-MDMA (20 mg/kg/day); also recorded: R-MDMA (10 mg/kg/day) < S-MDMA (10 mg/kg/day) = Rac-MDMA (20 mg/kg/day)
same,Rank Order Sensorimotor Measurement Effects,CD (Sprague Dawley) rats [1]; [5],S-MDMA (5 mg/kg/day) < Rac-MDMA (10 mg/kg/day) < R-MDMA (10 mg/kg/day); also recorded: S-MDMA (10 mg/kg/day) < Rac-MDMA (20 mg/kg/day) < R-MDMA (20 mg/kg/day); also recorded: Rac-MDMA (0 mg/kg/day) < Rac-MDMA (10 mg/kg/day) < Rac-MDMA (20 mg/kg/day)
same,Rank Order Activity Measurement Effects,CD (Sprague Dawley) rats [1]; [6],S-MDMA (5 mg/kg/day) < R-MDMA (10 mg/kg/day) < Rac.-MDMA (10 mg/kg/day); also recorded: Rac.-MDMA (20 mg/kg/day) < S-MDMA (10 mg/kg/day) < R-MDMA (20 mg/kg/day); also recorded: Rac.-MDMA (20 mg/kg/day) < S-MDMA (10 mg/kg/day) < R-MDMA (10 mg/kg/day)
same,Rank Order Autonomic Measurement Effects,CD (Sprague Dawley) rats [1]; [6],R-MDMA (10 mg/kg/day) < S-MDMA (5 mg/kg/day) < Rac.-MDMA (10 mg/kg/day)
same,Rank Order Excitability Measurement Effects,CD (Sprague Dawley) rats [1]; [6],R-MDMA (10 mg/kg/day) < S-MDMA (5 mg/kg/day) < Rac.-MDMA (10 mg/kg/day)
same,Rank Order Neuromuscular Measurement Effects,CD (Sprague Dawley) rats [1]; [6],R-MDMA (10 mg/kg/day) < S-MDMA (5 mg/kg/day) < Rac.-MDMA (10 mg/kg/day)
same,Rank Order Physiological Measurement Effects,CD (Sprague Dawley) rats [1]; [6],R-MDMA (10 mg/kg/day) < S-MDMA (5 mg/kg/day) < Rac.-MDMA (10 mg/kg/day)
same,thermal response times,"CD (Sprague Dawley) rats [1]; at levels at least two-fold that of vehicle-treated groups, 1 h after last of 4 hourly SC injections",Statistically significant increases in thermal response times
same,neuromuscular observations,CD (Sprague Dawley) rats [1]; primarily noted at 20 mg/kg/day racemic-MDMA (4 hourly SC injections),"observations of ataxia, hunched posture, and tip-toe walking"
same,hemodynamic parameters (systolic/diastolic/mean arterial blood pressures and heart rate),"CD (Sprague Dawley) rats [2]; 4 hourly SC injections, cumulative doses 5, 10, or 20 mg/kg/day",dose-dependent blood pressure-increasing effects
same,body temperature response,"CD (Sprague Dawley) rats [2]; S-MDMA 5, 10 mg/kg/day, racemic-MDMA 10, 20 mg/kg/day, 4 hourly SC injections",hyperthermic response
same,activity (implanted telemetry devices),"CD (Sprague Dawley) rats [2]; all cumulative doses (5, 10, or 20 mg/kg/day)",Activity-increasing effects
same,blood pressure increase [mean arterial pressure],CD (Sprague Dawley) rats [2]; [7],up to +46%
same,heart rate increase,CD (Sprague Dawley) rats [2]; [7],up to +37%
same,peak body temperatures,"CD (Sprague Dawley) rats [2]; overall mean magnitude of change, 4 hourly SC injections",40.0 °C
same,period of significantly increased body temperature compared to R-MDMA (10 mg/kg/day),CD (Sprague Dawley) rats [2]; [8],1-4 hours post initiation of dosing
same,period of significantly increased heart rate compared to R-MDMA (10 mg/kg/day),CD (Sprague Dawley) rats [2]; [8],3-10 hours post initiation of dosing
same,period of significantly increased mean arterial blood pressure compared to R-MDMA (10 mg/kg/day),CD (Sprague Dawley) rats [2]; [8],1-3 hours post initiation of dosing
same,period of significantly increased systolic blood pressure compared to R-MDMA (10 mg/kg/day),CD (Sprague Dawley) rats [2]; [8],1-3 hours post initiation of dosing
same,"Rank Order Blood Pressures (Systolic, Diastolic, and Mean Arterial) Effects",CD (Sprague Dawley) rats [2]; listed as Rac-MDMA,R-MDMA (20 mg/kg/day) < S-MDMA (10 mg/kg/day) < Rac-MDMA (20 mg/kg/day); also recorded: Rac-MDMA (0 mg/kg/day) < Rac-MDMA (10 mg/kg/day) < Rac-MDMA (20 mg/kg/day); also recorded: R-MDMA (10 mg/kg/day) < S-MDMA (10 mg/kg/day) < Rac-MDMA (20 mg/kg/day)
same,Rank Order Body Temperature Effects,CD (Sprague Dawley) rats [2]; listed as Rac-MDMA,R-MDMA (20 mg/kg/day) < S-MDMA (10 mg/kg/day) < Rac-MDMA (20 mg/kg/day); also recorded: Rac-MDMA (0 mg/kg/day) < Rac-MDMA (10 mg/kg/day) < Rac-MDMA (20 mg/kg/day); also recorded: R-MDMA (10 mg/kg/day) < S-MDMA (10 mg/kg/day) < Rac-MDMA (20 mg/kg/day)
same,Rank Order General Activity Effects,CD (Sprague Dawley) rats [2]; listed as Rac-MDMA,R-MDMA (20 mg/kg/day) < S-MDMA (10 mg/kg/day) < Rac-MDMA (20 mg/kg/day); also recorded: Rac-MDMA (0 mg/kg/day) < Rac-MDMA (10 mg/kg/day) < Rac-MDMA (20 mg/kg/day); also recorded: R-MDMA (10 mg/kg/day) < S-MDMA (10 mg/kg/day) < Rac-MDMA (20 mg/kg/day)
same,Rank Order Heart Rate Measurement Effects,CD (Sprague Dawley) rats [2]; listed as Rac-MDMA,R-MDMA (20 mg/kg/day) < S-MDMA (10 mg/kg/day) < Rac-MDMA (20 mg/kg/day); also recorded: Rac-MDMA (0 mg/kg/day) < Rac-MDMA (10 mg/kg/day) < Rac-MDMA (20 mg/kg/day); also recorded: R-MDMA (10 mg/kg/day) < S-MDMA (10 mg/kg/day) < Rac-MDMA (20 mg/kg/day)
same,"Rank Order Blood Pressures (Systolic, Diastolic, and Mean Arterial) Effects",CD (Sprague Dawley) rats [2]; listed as Rac.-MDMA,R-MDMA (10 mg/kg/day) < S-MDMA (5 mg/kg/day) < Rac.-MDMA (10 mg/kg/day)
same,Rank Order Body Temperature Effects,CD (Sprague Dawley) rats [2]; listed as Rac.-MDMA,R-MDMA (10 mg/kg/day) < S-MDMA (5 mg/kg/day) < Rac.-MDMA (10 mg/kg/day)
same,Rank Order General Activity Effects,CD (Sprague Dawley) rats [2]; listed as Rac.-MDMA,R-MDMA (10 mg/kg/day) < S-MDMA (5 mg/kg/day) < Rac.-MDMA (10 mg/kg/day)
same,Rank Order Heart Rate Measurement Effects,CD (Sprague Dawley) rats [2]; listed as Rac.-MDMA,R-MDMA (10 mg/kg/day) < S-MDMA (5 mg/kg/day) < Rac.-MDMA (10 mg/kg/day)
